According to US12662490B2, “Heterocyclic compounds” (Hoffmann-La Roche Inc., priority 2019, dated 2026):

Target: T1, MAGL (Homo sapiens, UniProt Q99685)
T1 sequence (Q99685 1-303): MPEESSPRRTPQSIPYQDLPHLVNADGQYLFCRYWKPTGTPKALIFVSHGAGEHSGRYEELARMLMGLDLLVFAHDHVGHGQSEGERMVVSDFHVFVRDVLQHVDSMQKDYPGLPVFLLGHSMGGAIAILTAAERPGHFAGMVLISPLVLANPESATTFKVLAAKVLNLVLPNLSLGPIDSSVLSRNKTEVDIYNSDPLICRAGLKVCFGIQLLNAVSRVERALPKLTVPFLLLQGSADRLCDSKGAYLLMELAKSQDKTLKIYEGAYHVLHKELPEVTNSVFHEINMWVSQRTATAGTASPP
Test: 2-AG assay (MAGL inhibitory activity; hydrolysis of 2-arachidonoylglycerol to arachidonic acid followed by mass spectrometry)
Assay type: biochemical
Settings: 15 min preincubation at RT, 8 μM 2-arachidonoylglycerol, 30 min at RT, RapidFire MS readout
Procedure, shortened: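 Compounds (final 12.5 μM to […], 3-fold steps) preincubated 15 min at RT with MAGL ([…]) in 50 mM TRIS, 1 mM EDTA, Tween buffer. Reaction started with 8 μM 2-arachidonoylglycerol, run 30 min at RT, quenched with ACN containing d8-arachidonic acid. Arachidonic acid quantified by RapidFire SPE-triple quadrupole MS (negative ESI), activity from arachidonic acid/d8 ratio.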

SMILES | IC50 [nM]
COc1cccc(C(=O)N2CCN3C[C@@H](c4cc(Cl)ccn4)OC[C@@H]3C2)c1Cl [Example 91, [(3S,9aS)-3-(4-chloro-2-pyridyl)-3,4,6,7,9,9a-hexahydro-1H-pyrazino[2,1-c][1,4]oxazin-8-yl]-(2-chloro-3-methoxy-phenyl)methanone] | 232
O=C(c1cccc(-c2c[nH]nc2F)c1)N1CCN2C[C@@](O)(c3ccc(F)c(F)c3)OC[C@@H]2C1 [Example 93, [(3R,9aS)-3-(3,4-difluorophenyl)-3-hydroxy-1,4,6,7,9,9a-hexahydropyrazino[2,1-c][1,4]oxazin-8-yl]-[3-(3-fluoro-1H-pyrazol-4-yl)phenyl]methanone] | 81.9
O=C(c1cccc(-c2c[nH]nc2F)c1Cl)N1CCN2C=C(c3ccc(C(F)(F)F)cn3)OC[C@@H]2C1 [Example 94, [(9aS)-3-[5-(trifluoromethyl)-2-pyridyl]-6,7,9,9a-tetrahydro-1H-pyrazino[2,1-c][1,4]oxazin-8-yl]-[2-chloro-3-(3-fluoro-1H-pyrazol-4-yl)phenyl]methanone] | 220
O=C(c1cccc(-c2c[nH]nc2F)c1Cl)N1CCN2C[C@H](c3ccc(F)c(F)c3)OC[C@@H]2C1 [Example 96, [(3S,9aS)-3-(3,4-difluorophenyl)-3,4,6,7,9,9a-hexahydro-1H-pyrazino[2,1-c][1,4]oxazin-8-yl]-[2-chloro-3-(3-fluoro-1H-pyrazol-4-yl)phenyl]methanone] | 1240
O=C(c1cccc(-c2c[nH]nc2F)c1Cl)N1CCN2C[C@@H](c3ccc(C(F)(F)F)nn3)OC[C@@H]2C1 [Example 97, [(3S,9aS)-3-[6-(trifluoromethyl)pyridazin-3-yl]-3,4,6,7,9,9a-hexahydro-1H-pyrazino[2,1-c][1,4]oxazin-8-yl]-[2-chloro-3-(3-fluoro-1H-pyrazol-4-yl)phenyl]methanone] | 439
COc1cccc(C(=O)N2CCN3C[C@@H](c4cc(C(F)(F)F)c(Cl)cn4)OC[C@@H]3C2)c1Cl [Example 98, (2-chloro-3-methoxy-phenyl)-[(3S,9aS)-3-[5-chloro-4-(trifluoromethyl)-2-pyridyl]-3,4,6,7,9,9a-hexahydro-1H-pyrazino[2,1-c][1,4]oxazin-8-yl]methanone] | 30.7
COc1cccc(C(=O)N2CCN3C[C@@H](c4cc(OC(F)(F)F)ccn4)OC[C@@H]3C2)c1Cl [Example 99, (2-chloro-3-methoxy-phenyl)-[(3S,9aS)-3-[4-(trifluoromethoxy)-2-pyridyl]-3,4,6,7,9,9a-hexahydro-1H-pyrazino[2,1-c][1,4]oxazin-8-yl]methanone] | 284
O=C(c1cccc(-c2c[nH]nc2F)c1Cl)N1CCN2C[C@@](O)(c3ccc(C(F)(F)F)[nH]c3=O)OC[C@@H]2C1 [Example 100, 3-[(3R,9aS)-8-[2-chloro-3-(3-fluoro-1H-pyrazol-4-yl)benzoyl]-3-hydroxy-1,4,6,7,9,9a-hexahydropyrazino[2,1-c][1,4]oxazin-3-yl]-6-(trifluoromethyl)-1H-pyridin-2-one] | 55.3
COc1cccc(C(=O)N2CCN3C[C@@H](c4cc(C(F)(F)F)c(F)cn4)OC[C@@H]3C2)c1Cl [Example 101, (2-chloro-3-methoxy-phenyl)-[(3S,9aS)-3-[5-fluoro-4-(trifluoromethyl)-2-pyridyl]-3,4,6,7,9,9a-hexahydro-1H-pyrazino[2,1-c][1,4]oxazin-8-yl]methanone] | 133
O=C(c1cccc(-c2cn[nH]c2C(F)(F)F)c1)N1CCN2C[C@@H](c3ccc(F)c(Cl)c3)OC[C@@H]2C1 [Example 103, [(3R,9aS)-3-(3-chloro-4-fluoro-phenyl)-3,4,6,7,9,9a-hexahydro-1H-pyrazino[2,1-c][1,4]oxazin-8-yl]-[3-[5-(trifluoromethyl)-1H-pyrazol-4-yl]phenyl]methanone] | 28.2
COc1cccc(C(=O)N2CCN3C[C@@H](c4cc(C(F)F)c(Cl)cn4)OC[C@@H]3C2)c1Cl [Example 104, (2-chloro-3-methoxy-phenyl)-[(3S,9aS)-3-[5-chloro-4-(difluoromethyl)-2-pyridyl]-3,4,6,7,9,9a-hexahydro-1H-pyrazino[2,1-c][1,4]oxazin-8-yl]methanone] | 89.5

Compounds with a lower IC50, results first:

IC50 [nM] | SMILES
20.7 | O=C(c1cccc(-c2cn[nH]c2C(F)(F)F)c1F)N1CCN2C[C@@H](c3ccc(F)c(Cl)c3)OC[C@@H]2C1 [Example 102, [(3R,9aS)-3-(3-chloro-4-fluoro-phenyl)-3,4,6,7,9,9a-hexahydro-1H-pyrazino[2,1-c][1,4]oxazin-8-yl]-[2-fluoro-3-[5-(trifluoromethyl)-1H-pyrazol-4-yl]phenyl]methanone]
14.3 | O=C(c1cccc(-c2ccc(=O)[nH]c2)c1Cl)N1CCN2C[C@@H](c3ccc(F)c(Cl)c3)OC[C@@H]2C1 [Example 106, 5-[3-[(3R,9aS)-3-(3-chloro-4-fluoro-phenyl)-3,4,6,7,9,9a-hexahydro-1H-pyrazino[2,1-c][1,4]oxazine-8-carbonyl]-2-chloro-phenyl]-1H-pyridin-2-one]
12.6 | COc1cccc(C(=O)N2CCN3C[C@@H](c4cc(Br)c(Cl)cn4)OC[C@@H]3C2)c1Cl [Example 107, (2-chloro-3-methoxy-phenyl)-[(3S,9aS)-3-[5-chloro-4-bromo-2-pyridyl]-3,4,6,7,9,9a-hexahydro-1H-pyrazino[2,1-c][1,4]oxazin-8-yl]methanone]
10.8 | O=C(c1cc(F)cc(-c2cc[nH]c(=O)c2)c1Cl)N1CCN2C[C@@H](c3ccc(F)c(Cl)c3)OC[C@@H]2C1 [Example 114, 4-[3-[(3R,9aS)-3-(3-chloro-4-fluoro-phenyl)-3,4,6,7,9,9a-hexahydro-1H-pyrazino[2,1-c][1,4]oxazine-8-carbonyl]-2-chloro-5-fluoro-phenyl]-1H-pyridin-2-one]
10.5 | O=C(c1cccc(N2CC(O)C2)c1Cl)N1CCN2C[C@@H](c3ccc(F)c(Cl)c3)OC[C@@H]2C1 [Example 108, [(3R,9aS)-3-(3-chloro-4-fluoro-phenyl)-3,4,6,7,9,9a-hexahydro-1H-pyrazino[2,1-c][1,4]oxazin-8-yl]-[2-chloro-3-(3-hydroxyazetidin-1-yl)phenyl]methanone]
9.1 | O=C(c1cccc(-c2c[nH]nc2F)c1Cl)N1CCN2C[C@@](O)(c3ccc(F)c(F)c3)OC[C@@H]2C1 [Example 92, [(3R,9aS)-3-(3,4-difluorophenyl)-3-hydroxy-1,4,6,7,9,9a-hexahydropyrazino[2,1-c][1,4]oxazin-8-yl]-[2-chloro-3-(3-fluoro-1H-pyrazol-4-yl)phenyl]methanone]
8.9 | O=C(c1cccc(-c2cc[nH]c(=O)c2)c1Cl)N1CCN2C[C@@H](c3ccc(F)c(Cl)c3)OC[C@@H]2C1 [Example 105, 4-[3-[(3R,9aS)-3-(3-chloro-4-fluoro-phenyl)-3,4,6,7,9,9a-hexahydro-1H-pyrazino[2,1-c][1,4]oxazine-8-carbonyl]-2-chloro-phenyl]-1H-pyridin-2-one]
7.6 | O=C(c1cccc(-c2c[nH]nc2F)c1Cl)N1CCN2C[C@@H](c3ccc(F)c(F)c3)OC[C@@H]2C1 [Example 95, [(3R,9aS)-3-(3,4-difluorophenyl)-3,4,6,7,9,9a-hexahydro-1H-pyrazino[2,1-c][1,4]oxazin-8-yl]-[2-chloro-3-(3-fluoro-1H-pyrazol-4-yl)phenyl]methanone]
7.6 | N#Cc1cc(-c2cccc(C(=O)N3CCN4C[C@@](O)(c5ccc(F)c(F)c5)OC[C@@H]4C3)c2Cl)c[nH]1 [Example 113, 4-[3-[(3R,9aS)-3-(3,4-difluorophenyl)-3-hydroxy-1,4,6,7,9,9a-hexahydropyrazino[2,1-c][1,4]oxazine-8-carbonyl]-2-chloro-phenyl]-1H-pyrrole-2-carbonitrile]
6.5 | N#Cc1cc(-c2cc(F)cc(C(=O)N3CCN4C[C@@H](c5ccc(C(F)(F)F)[nH]c5=O)OC[C@@H]4C3)c2Cl)c[nH]1 [Example 112, 4-[3-[(3R,9aS)-3-[2-oxo-6-(trifluoromethyl)-1H-pyridin-3-yl]-3,4,6,7,9,9a-hexahydro-1H-pyrazino[2,1-c][1,4]oxazine-8-carbonyl]-2-chloro-5-fluoro-phenyl]-1H-pyrrole-2-carbonitrile]
5.8 | COc1ccc(F)c(C(=O)N2CCN3C[C@@H](c4ccc(F)c(Cl)c4)OC[C@@H]3C2)c1Cl [Example 111, [(3R,9aS)-3-(3-chloro-4-fluoro-phenyl)-3,4,6,7,9,9a-hexahydro-1H-pyrazino[2,1-c][1,4]oxazin-8-yl]-(2-chloro-6-fluoro-3-methoxy-phenyl)methanone]
5 | COc1cccc(C(=O)N2CCN3C[C@@H](c4ccc(Br)c(Cl)c4)OC[C@@H]3C2)c1Cl [Example 110, [(3R,9aS)-3-(4-bromo-3-chloro-phenyl)-3,4,6,7,9,9a-hexahydro-1H-pyrazino[2,1-c][1,4]oxazin-8-yl]-(2-chloro-3-methoxy-phenyl)methanone]
1.6 | N#Cc1cc(-c2cccc(C(=O)N3CCN4C[C@@](O)(c5ccc(F)c(Cl)c5)OC[C@@H]4C3)c2Cl)c[nH]1 [Example 109, 4-[3-[(3R,9aS)-3-(3-chloro-4-fluoro-phenyl)-3-hydroxy-1,4,6,7,9,9a-hexahydropyrazino[2,1-c][1,4]oxazine-8-carbonyl]-2-chloro-phenyl]-1H-pyrrole-2-carbonitrile]
